Experimental data as given in patent US4157347A, “N-cyano isothioureas” (Bristol-Myers Company, priority 1978, dated 1979).

Assays:
[1] = in words; cited from earlier work
[2] = target: T1, histamine H2-receptors (Cavia porcellus, UniProt P47747); details: literature, in words; cited from earlier work
T1 construct: The spontaneously beating right atrium was dissected free from other tissues; from tissue; host or cells: isolated spontaneously beating right atrium of male Hartley guinea pigs

[3] = tested on: gastric secretion; details: in words, cited from earlier work
[4] = target: T1, histamine H2-receptors; assay: Histamine H2-receptor antagonism, isolated guinea pig right atria assay; format: cell-based; details: cumulative histamine 1×10^-7 to 3×10^-5 M
Procedure: Subsequent investigations by Hughes and Coret, Proc. Soc. […] Black et al., Agents and Actions, 3, 133 (1973) and Brimblecombe et al., Fed. […] The present comparative studies were carried out using a modification of the procedure reported by Reinhardt et al., Agents and Actions, 4, 217 (1974).
Male Hartley strain guinea pigs (350-450 gm.) were sacrificed by a blow on the head. The heart was excised and placed in a Petri dish of oxygenated (95% O2, 5% CO2) modified Krebs solution (g./liter: NaCl 6.6, KCl 0.35, MgSO4.7 H2 O 0.295, KH2 PO4 0.162, CaCl2 0.238, NaHCO3 2.1 and dextrose 2.09). The spontaneously beating right atrium was dissected free from other tissues and a silk thread (4-0) attached to each end. The atrium was suspended in a 20 ml. muscle chamber containing oxygenated modified Krebs solution maintained at 32° C. Atrial contractions were recorded isometrically by means of a Grass FT 0.03 force displacement transducer and recordings of contractile force and rate were made with a Beckman RP Dynograph.
A resting tension of 1 g. was applied to the atrium and it was allowed to equilibrate for 1 hour.
Concentration-response curve displacement factors were calculated as follows: [formula] The factor obtained for BL-5641 was then expressed as a ratio of the factor obtained for cimetidine. [formula]

[5] = tested on: H2 receptors; details: in words; cited from earlier work
[6] = clinical, in words; cited from earlier work

T1 sequence (P47747 whole entry): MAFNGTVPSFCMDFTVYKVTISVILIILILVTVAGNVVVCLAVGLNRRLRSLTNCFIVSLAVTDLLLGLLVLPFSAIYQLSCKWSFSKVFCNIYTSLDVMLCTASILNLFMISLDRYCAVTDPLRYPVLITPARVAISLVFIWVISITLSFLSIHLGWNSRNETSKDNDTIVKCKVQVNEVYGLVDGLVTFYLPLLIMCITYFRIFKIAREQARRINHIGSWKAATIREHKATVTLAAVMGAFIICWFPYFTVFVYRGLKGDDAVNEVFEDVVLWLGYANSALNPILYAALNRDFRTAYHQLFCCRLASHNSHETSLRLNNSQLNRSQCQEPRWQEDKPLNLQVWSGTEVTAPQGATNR

SMILES	oral absorption [1]	effect on histamine H2-receptors / contractile rate of guinea pig right atria [2]	inhibition of gastric secretion ([3]; animals and man)	clinical effectiveness as H2 receptor antagonist [3]	concentration of maximal response (histamine-induced increase in atrial rate) [4]	H2 antagonist potency/effectiveness [5]	oral activity in man [1]	toxicity (agranulocytosis) [6]
CNC(=S)NCCCCc1cnc[nH]1 [Burimamide]	oral absorption is poor	a competitive antagonist of these receptors	inhibits gastric secretion in animals and man	first clinically effective H2 receptor antagonist				
NCCc1c[nH]cn1 [Histamine]		concentration-related increases in the contractile rate			30 µM			
CNC(=S)NCCSCc1[nH]cnc1C [Metiamide]						more potent than burimamide	orally active in man	toxicity (agranulocytosis)
